Results taken from paper PMC10112232, “Comparison of Toxicities among Different Bumped Kinase Inhibitor Analogs for Treatment of Cryptosporidiosis” (Antimicrobial Agents and Chemotherapy, 2023).
≈ marks a conversion by molar mass, not a printed value. Like-named read-outs stand apart in the source and are kept apart here.

Columns and labels:
[1] = test system: Cryptosporidium; parameters: method as in PMID 12423984, PMID 11398117, PMID 26568906; details: malnourished children (subtracting placebo efficacy); cited from earlier work
[2] = Aqueous solubility; assay type: physicochemical
Excerpt: TABLE 1 In vitro properties of bumped kinase inhibitors^a | column: Solubility at pH 2 (μM); Solubility at pH 6.5 (μM)

[3] = test system: Nluc expressing C. parvum; assay: Nluc expressing C. parvum in vitro growth inhibition in infected HCT-8 cells; assay type: cell-based; details: Cryptosporidium parvum
Excerpt: (§1) Methods for synthesis of BKIs ([17], [23]), efficacy against Nluc expressing C. parvum in infected adult IFN-γ KO mice ([6], [9]), in vivo mouse GI tract tissue exposure by LC/MS-MS analysis ([18], [28]), PK analysis of mouse plasma and brain tissue BKI concentrations by LC/MS-MS analysis ([29]), in vivo rat and dog cardiotoxicity screen ([30]), efficacy against IOWA-II strain C. parvum in infected neonatal calves ([13]), efficacy against C. hominis in infected piglets ([12]), in vitro inhibition of C. parvum CDPK1 (CpCDPK1) and human tyrosine kinase SRC (HsSRC) activity ([31]), in vitro inhibition of hERG ([32]), Nluc expressing C. parvum in vitro growth inhibition in infected HCT-8 cells ([6]), in vitro cytotoxicity in CRL-8155 and HepG2 cells ([29]), and mouse locomotor activity box ([33], [34]) have all been previously described. Analytes were measured by LC/MS-MS on an Acquity ultra performance liquid chromatography (UPLC) system in tandem with a Xevo TQ-S mass spectrometer (Waters, Milford, MA, USA).

[4] = In vitro cytotoxicity in HepG2 cells; assay type: cell-based; details: human
Excerpt: as §1

[5] = molecular target: human tyrosine kinase SRC (HsSRC) (Homo sapiens, UniProt P12931); assay: In vitro inhibition of HsSRC; assay type: biochemical; details: read-out: HsSR IC50
Sequence of human tyrosine kinase SRC (HsSRC) (P12931 whole entry): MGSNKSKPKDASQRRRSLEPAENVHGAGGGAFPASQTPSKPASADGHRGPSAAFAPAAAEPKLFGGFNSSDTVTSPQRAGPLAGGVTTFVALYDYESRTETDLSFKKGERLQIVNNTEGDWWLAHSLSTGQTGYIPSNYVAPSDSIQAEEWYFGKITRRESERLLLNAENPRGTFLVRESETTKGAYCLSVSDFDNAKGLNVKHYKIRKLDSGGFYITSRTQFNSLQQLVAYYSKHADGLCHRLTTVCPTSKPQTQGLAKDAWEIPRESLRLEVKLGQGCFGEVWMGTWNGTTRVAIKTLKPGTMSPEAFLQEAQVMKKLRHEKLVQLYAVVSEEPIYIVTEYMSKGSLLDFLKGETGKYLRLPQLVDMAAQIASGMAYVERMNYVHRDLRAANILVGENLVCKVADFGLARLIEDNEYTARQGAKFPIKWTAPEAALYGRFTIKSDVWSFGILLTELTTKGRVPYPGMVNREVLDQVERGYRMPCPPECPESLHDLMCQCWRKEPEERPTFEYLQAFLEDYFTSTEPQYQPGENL
Excerpt: as §1

[6] = molecular target: T1, C. parvum calcium dependent protein kinase 1 (CpCDPK1) (Cryptosporidium parvum, UniProt A3FQ16); assay: In vitro inhibition of CpCDPK1; assay type: biochemical
T1 sequence (A3FQ16 1-538): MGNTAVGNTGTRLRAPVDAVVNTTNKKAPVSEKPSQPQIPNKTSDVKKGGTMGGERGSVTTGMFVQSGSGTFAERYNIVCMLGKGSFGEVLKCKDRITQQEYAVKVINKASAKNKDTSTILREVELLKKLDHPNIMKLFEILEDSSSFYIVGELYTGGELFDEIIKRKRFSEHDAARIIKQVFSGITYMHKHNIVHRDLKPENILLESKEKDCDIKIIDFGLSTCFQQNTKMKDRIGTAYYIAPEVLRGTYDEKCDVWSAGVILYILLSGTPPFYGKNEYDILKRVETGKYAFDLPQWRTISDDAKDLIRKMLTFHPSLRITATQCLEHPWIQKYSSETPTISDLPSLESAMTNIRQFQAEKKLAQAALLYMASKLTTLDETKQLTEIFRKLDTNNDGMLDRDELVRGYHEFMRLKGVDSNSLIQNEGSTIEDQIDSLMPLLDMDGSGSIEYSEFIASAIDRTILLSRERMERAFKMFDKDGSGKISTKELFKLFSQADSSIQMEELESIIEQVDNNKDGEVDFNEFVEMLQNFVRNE
Excerpt: as §1

[7] = In vitro cytotoxicity in CRL-8155 cells; assay type: cell-based; details: human
Excerpt: as §1

[8] = molecular target: hERG (Homo sapiens, UniProt Q12809); details: cited from earlier work
Sequence of hERG (Q12809 whole entry): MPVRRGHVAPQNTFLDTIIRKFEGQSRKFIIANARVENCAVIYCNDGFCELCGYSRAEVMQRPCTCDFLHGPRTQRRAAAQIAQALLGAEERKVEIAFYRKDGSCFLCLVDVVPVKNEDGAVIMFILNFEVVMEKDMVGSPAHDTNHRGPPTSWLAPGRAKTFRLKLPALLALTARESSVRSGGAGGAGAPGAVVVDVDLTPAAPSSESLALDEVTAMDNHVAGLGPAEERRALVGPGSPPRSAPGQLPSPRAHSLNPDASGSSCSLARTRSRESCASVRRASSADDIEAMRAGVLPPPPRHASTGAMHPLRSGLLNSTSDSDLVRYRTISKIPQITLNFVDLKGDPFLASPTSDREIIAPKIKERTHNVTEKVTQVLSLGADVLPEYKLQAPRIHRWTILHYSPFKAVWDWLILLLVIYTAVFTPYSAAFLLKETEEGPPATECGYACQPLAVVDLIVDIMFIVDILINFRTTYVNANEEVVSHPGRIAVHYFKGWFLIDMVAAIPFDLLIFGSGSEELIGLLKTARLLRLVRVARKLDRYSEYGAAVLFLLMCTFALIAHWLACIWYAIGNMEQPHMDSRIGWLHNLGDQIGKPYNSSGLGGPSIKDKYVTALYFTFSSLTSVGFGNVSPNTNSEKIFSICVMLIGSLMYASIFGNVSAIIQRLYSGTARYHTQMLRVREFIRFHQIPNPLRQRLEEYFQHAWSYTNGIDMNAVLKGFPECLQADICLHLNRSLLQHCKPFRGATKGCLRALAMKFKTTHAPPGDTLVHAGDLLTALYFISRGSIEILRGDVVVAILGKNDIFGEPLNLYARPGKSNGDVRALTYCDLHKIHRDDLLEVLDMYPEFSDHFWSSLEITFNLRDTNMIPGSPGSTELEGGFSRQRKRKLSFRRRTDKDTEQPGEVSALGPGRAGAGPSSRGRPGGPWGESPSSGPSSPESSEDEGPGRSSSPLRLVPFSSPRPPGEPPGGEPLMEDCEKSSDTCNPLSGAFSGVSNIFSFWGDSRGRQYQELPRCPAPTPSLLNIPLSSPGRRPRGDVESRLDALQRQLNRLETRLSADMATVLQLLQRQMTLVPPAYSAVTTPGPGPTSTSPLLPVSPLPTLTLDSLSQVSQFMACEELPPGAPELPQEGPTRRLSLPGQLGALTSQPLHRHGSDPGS

[9] = rat, in vivo; cited from earlier work
[10] = Cardiovascular testing in anesthetized dogs; assay type: in vivo, dog; details: dogs (data not shown)
Excerpt: as §1

Structure (SMILES): CC(=O)Oc1ccccc1C(=O)Nc1ncc([N+](=O)[O-])s1 [Nitazoxanide]
- efficacy [1]: about 30%

Structure (SMILES): CC(C)(CCO)n1nc(-c2ccc3cc(O)ccc3c2)c(C(N)=O)c1N [1770-M5]
- solubility ([2]; aqueous medium at pH 2, pH 2, simulated gastric fluid, read-out: Solubility at pH 2): 89 µM (≈ 31.5 µg/mL)
- solubility ([2]; aqueous medium at pH 6.5, pH 6.5, aqueous buffer, read-out: Solubility at pH 6.5): > 100 µM
- EC50 [3]: 2.1 µM
- CC50 [4]: > 80 µM
- IC50 [5]: 5.4 µM
- IC50 [6]: 0.018 µM
- CC50 [7]: > 80 µM

Structure (SMILES): CCOc1ccc2cc(-c3nn(CC4CCN(C)CC4)c4ncnc(N)c34)ccc2c1 [BKI-1294]
- inhibition of hERG in vitro [8]: submicromolar range

Structure (SMILES): CCOc1ccc2cc(-c3nn(CC4CCN(C)CC4)c4ncnc(N)c34)ccc2n1 [BKI-1369]
- cardiotoxicity in vivo [9]: Cardiotoxicity was additionally seen
- cardiotoxicity in vivo [10]: Cardiotoxicity was additionally seen
- cardiotoxicity in the in vitro hERG assay [8]: Cardiotoxicity was additionally seen
